Assay results from US20260062422A1 (Halda Therapeutics OpCo, Inc., priority 2022, published 2026).

Columns and labels:
[1] = tested on: T-Rex 293 cell line SC3 cells having increased expression of androgen receptor protein due to exposure to doxycycline; assay: Cellular growth inhibition, T-Rex 293 SC3 cells with doxycycline (androgen receptor induced), CellTiter-Glo; type: cell-based; details: T-Rex 293 SC3 cells with 10 ng/mL doxycycline (increased androgen receptor expression)
Method in brief: (§1)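 With DMSO (0.5%) vehicle as negative control, compounds treated SC3 cells for 72 h in medium containing charcoal-dextran FBS ± doxycycline. This T-Rex 293 clone expresses transfected wild-type AR on induction. Readout: CellTiter-Glo 2.0; GI50 by nonlinear regression.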

[2] = tested on: T-Rex 293 cell line SC3 cells lacking increased expression of androgen receptor protein; assay: Cellular growth inhibition, T-Rex 293 SC3 cells without doxycycline, CellTiter-Glo; type: cell-based; details: T-Rex 293 SC3 cells not exposed to doxycycline, CellTiter-Glo 2.0
Method in brief: as §1

VCaP cells = assay: Cellular growth inhibition assay for VCaP cells, CellTiter-Glo; type: cell-based, human; details: 72 hours treatment, CellTiter-Glo 2.0
Method in brief: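 GI50 values come from four-parameter curve fits of luminescence data normalized to a zero baseline. Compound, in medium with 0.5% DMSO, was added one day after plating and left for 72 h before CellTiter-Glo 2.0 addition.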

T47D cells = assay: Cellular growth inhibition assay for T47D cells, CellTiter-Glo; type: cell-based, human; details: 72 hours treatment, CellTiter-Glo 2.0 cell viability
Method in brief: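 Growth inhibition as GI50, fitted with four parameters to CellTiter-Glo luminescence after 72 h of compound exposure (0.5% DMSO). Cells were T47D, grown in insulin-supplemented (0.2 units/mL) DMEM with 10% FBS and treated one day post-seeding.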

GI50 (VCaP cells; Homo sapiens, VCaP, 72 h) [nM]	GI50 (T47D cells; Homo sapiens, T47D, 72 h) [nM]	GI50 (VCaP cells) [nM]	GI50 (T47D cells) [nM]	SMILES	GI50 ([1]; 72 h) [nM]	GI50 ([2]; 72 h) [nM]	GI50 ([1]; 72 hours) [nM]	GI50 ([2]; 72 hours) [nM]
< 500	< 500	–	–	Cc1sc2c(c1C)C(c1ccc(N3CCC[C@H](C(=O)N4CCCC4c4ncc(C(=O)N[C@H]5C(C)(C)[C@H](Oc6ccc(C#N)c(Cl)c6)C5(C)C)cn4)C3)cc1)=N[C@@H](Cc1ncco1)c1nnc(C)n1-2 (stereo partly drawn) [Compound I-314]	< 500	> 3000	–	–
< 500	500 to 1500	–	–	Cc1sc2c(c1C)C(c1ccc(CN(C)C(=O)CCc3ncc(C(=O)N[C@H]4C(C)(C)[C@H](Oc5ccc(C#N)c(Cl)c5)C4(C)C)cn3)cc1)=N[C@@H](Cc1ncco1)c1nnc(C)n1-2 [Compound I-317]	1500 to 3000	> 3000	–	–
< 500	< 500	–	–	Cc1sc2c(c1C)C(c1ccc(C[C@H]3CC[C@H]4CN(c5ncc(C(=O)N[C@H]6C(C)(C)[C@H](Oc7ccc(C#N)c(Cl)c7)C6(C)C)cn5)CCN4C3)cc1)=NC(Cc1ncco1)c1nnc(C)n1-2 (stereo partly drawn) [Compound I-324]	> 3000	< 500	–	–
> 3000	500 to 1500	–	–	Cc1sc2c(c1C)C(c1ccc(OC3CCN(C4CCN(c5ncc(C(=O)N[C@H]6C(C)(C)[C@H](Oc7ccc(C#N)c(Cl)c7)C6(C)C)cn5)CC4)CC3)cc1)=N[C@@H](C)c1nnc(C)n1-2 [Compound I-325]	< 500	1500 to 3000	–	–
500 to 1500	1500 to 3000	–	–	Cc1sc2c(c1C)C(c1ccc(CNC(=O)NCc3ncc(C(=O)N[C@H]4C(C)(C)[C@H](Oc5ccc(C#N)c(Cl)c5)C4(C)C)cn3)cc1)=N[C@@H](Cc1ncco1)c1nnc(C)n1-2 [Compound I-326]	500 to 1500	> 3000	–	–
> 3000	> 3000	–	–	Cc1sc2c(c1C)C(c1ccc(C(=O)N3CCN(Cc4ncc(C(=O)N[C@H]5C(C)(C)[C@H](Oc6ccc(C#N)c(Cl)c6)C5(C)C)cn4)CC3)cc1)=N[C@@H](Cc1ncco1)c1nnc(C)n1-2 [Compound I-327]	> 3000	> 3000	–	–
> 3000	1500 to 3000	–	–	Cc1sc2c(c1C)C(c1ccc(C(=O)N3CCN(Cc4ncc(C(=O)N[C@H]5C(C)(C)[C@H](Oc6ccc(C#N)c(Cl)c6)C5(C)C)cn4)CC3)cc1)=N[C@H](Cc1ncco1)c1nnc(C)n1-2 [Compound I-328]	1500 to 3000	> 3000	–	–
< 500	< 500	–	–	Cc1sc2c(c1C)C(c1ccc(N3CCC(C(=O)NCc4ncc(C(=O)N[C@H]5C(C)(C)[C@H](Oc6ccc(C#N)c(Cl)c6)C5(C)C)cn4)CC3)cc1)=N[C@@H](Cc1ncco1)c1nnc(C)n1-2 [Compound I-329]	< 500	500 to 1500	–	–
500 to 1500	1500 to 3000	–	–	Cc1sc2c(c1C)C(c1ccc(CCNC(=O)NCc3ncc(C(=O)N[C@H]4C(C)(C)[C@H](Oc5ccc(C#N)c(Cl)c5)C4(C)C)cn3)cc1)=N[C@H](Cc1ncco1)c1nnc(C)n1-2 [Compound I-330]	< 500	> 3000	–	–
–	–	< 500	500 to 1500	Cc1sc2c(c1C)C(c1ccc(N3CCC[C@H](C(=O)NCc4ncc(C(=O)N[C@H]5C(C)(C)[C@H](Oc6ccc(C#N)c(Cl)c6)C5(C)C)cn4)C3)cc1)=N[C@@H](Cc1ncco1)c1nnc(C)n1-2 [Compound I-331]	–	–	< 500	500 to 1500
–	–	> 3000	> 3000	Cc1sc2c(c1C)C(c1ccc(N3CCC[C@H](C(=O)NCc4ncc(C(=O)N[C@H]5C(C)(C)[C@H](Oc6ccc(C#N)c(Cl)c6)C5(C)C)cn4)C3)cc1)=N[C@@H](Cc1ncco1)c1nnc(C)n1-2 [Compound I-332]	–	–	> 3000	> 3000
> 3000	> 3000	–	–	Cc1sc2c(c1C)C(c1ccc(C(=O)N3CCN(CCc4ncc(C(=O)N[C@H]5C(C)(C)[C@H](Oc6ccc(C#N)c(Cl)c6)C5(C)C)cn4)CC3)cc1)=N[C@@H](Cc1ncco1)c1nnc(C)n1-2 [Compound I-333]	> 3000	> 3000	–	–
< 500	< 500	–	–	Cc1sc2c(c1C)C(c1ccc(CN3CCO[C@@H](CNc4ncc(C(=O)N[C@H]5C(C)(C)[C@H](Oc6ccc(C#N)c(Cl)c6)C5(C)C)cn4)C3)cc1)=N[C@@H](Cc1ncco1)c1nnc(C)n1-2 [Compound I-334]	< 500	< 500	–	–
500 to 1500	500 to 1500	–	–	Cc1sc2c(c1C)C(c1ccc(CN(C)C(=O)CN(C)c3ncc(C(=O)N[C@H]4C(C)(C)[C@H](Oc5ccc(C#N)c(Cl)c5)C4(C)C)cn3)cc1)=N[C@@H](Cc1ncco1)c1nnc(C)n1-2 [Compound I-335]	< 500	> 3000	–	–
500 to 1500	< 500	–	–	Cc1sc2c(c1C)C(c1ccc(N3CCCC(C(=O)N4CCC[C@H](c5ncc(C(=O)N[C@H]6C(C)(C)[C@H](Oc7ccc(C#N)c(Cl)c7)C6(C)C)cn5)C4)C3)cc1)=N[C@@H](Cc1ncco1)c1nnc(C)n1-2 (stereo partly drawn) [Compound I-336]	< 500	500 to 1500	–	–
< 500	< 500	–	–	Cc1sc2c(c1C)C(c1ccc(N3CCC[C@H](C(=O)N4CCC[C@@H](c5ncc(C(=O)N[C@H]6C(C)(C)[C@H](Oc7ccc(C#N)c(Cl)c7)C6(C)C)cn5)C4)C3)cc1)=N[C@@H](Cc1ncco1)c1nnc(C)n1-2 [Compound I-337]	< 500	500 to 1500	–	–
> 3000	> 3000	–	–	Cc1sc2c(c1C)C(c1ccc(N3CCC[C@H](C(=O)N4CCC[C@H](c5ncc(C(=O)N[C@H]6C(C)(C)[C@H](Oc7ccc(C#N)c(Cl)c7)C6(C)C)cn5)C4)C3)cc1)=N[C@H](Cc1ncco1)c1nnc(C)n1-2 [Compound I-338]	> 3000	> 3000	–	–
> 3000	> 3000	–	–	Cc1sc2c(c1C)C(c1ccc(N3CCC[C@H](C(=O)N4CCC[C@@H](c5ncc(C(=O)N[C@H]6C(C)(C)[C@H](Oc7ccc(C#N)c(Cl)c7)C6(C)C)cn5)C4)C3)cc1)=N[C@H](Cc1ncco1)c1nnc(C)n1-2 [Compound I-339]	> 3000	> 3000	–	–
> 3000	1500 to 3000	–	–	Cc1sc2c(c1C)C(c1ccc(N3CCN(C(=O)c4ncc(C(=O)N[C@H]5C(C)(C)[C@H](Oc6ccc(C#N)c(Cl)c6)C5(C)C)cn4)CC3)cc1)=N[C@@H](Cc1ncco1)c1nnc(C)n1-2 [Compound I-340]	> 3000	> 3000	–	–
< 500	500 to 1500	–	–	Cc1sc2c(c1C)C(c1ccc(N3CCN(C(=O)c4ncc(C(=O)N[C@H]5C(C)(C)[C@H](Oc6ccc(C#N)c(Cl)c6)C5(C)C)cn4)CC3)cc1)=N[C@H](Cc1ncco1)c1nnc(C)n1-2 [Compound I-341]	500 to 1500	500 to 1500	–	–
> 3000	> 3000	–	–	Cc1sc2c(c1C)C(c1ccc(C(=O)N(C)CCCc3ncc(C(=O)N[C@H]4C(C)(C)[C@H](Oc5ccc(C#N)c(Cl)c5)C4(C)C)cn3)cc1)=N[C@@H](Cc1ncco1)c1nnc(C)n1-2 [Compound I-342]	> 3000	> 3000	–	–
1500 to 3000	1500 to 3000	–	–	Cc1sc2c(c1C)C(c1ccc(C(=O)N(C)CCCc3ncc(C(=O)N[C@H]4C(C)(C)[C@H](Oc5ccc(C#N)c(Cl)c5)C4(C)C)cn3)cc1)=N[C@H](Cc1ncco1)c1nnc(C)n1-2 [Compound I-343]	1500 to 3000	> 3000	–	–
500 to 1500	500 to 1500	–	–	Cc1sc2c(c1C)C(c1ccc(C(=O)N3CCC[C@@H](C(=O)c4ncc(C(=O)N[C@H]5C(C)(C)[C@H](Oc6ccc(C#N)c(Cl)c6)C5(C)C)cn4)C3)cc1)=N[C@@H](Cc1ncco1)c1nnc(C)n1-2 [Compound I-344]	> 3000	> 3000	–	–
> 3000	1500 to 3000	–	–	Cc1sc2c(c1C)C(c1ccc(C(=O)N3CCC[C@H](C(=O)c4ncc(C(=O)N[C@H]5C(C)(C)[C@H](Oc6ccc(C#N)c(Cl)c6)C5(C)C)cn4)C3)cc1)=N[C@@H](Cc1ncco1)c1nnc(C)n1-2 [Compound I-345]	> 3000	> 3000	–	–
500 to 1500	> 3000	–	–	Cc1sc2c(c1C)C(c1ccc(C(=O)N3CCCC(C(=O)c4ncc(C(=O)N[C@H]5C(C)(C)[C@H](Oc6ccc(C#N)c(Cl)c6)C5(C)C)cn4)C3)cc1)=N[C@H](Cc1ncco1)c1nnc(C)n1-2 (stereo partly drawn) [Compound I-346]	< 500	> 3000	–	–
> 3000	> 3000	–	–	Cc1sc2c(c1C)C(c1ccc(COC3CCN(c4ncc(C(=O)N[C@H]5C(C)(C)[C@H](Oc6ccc(C#N)c(Cl)c6)C5(C)C)cn4)CC3)cc1)=N[C@@H](C)c1nnc(C)n1-2 [Compound I-347]	> 3000	> 3000	–	–
< 500	< 500	–	–	Cc1sc2c(c1C)C(c1ccc(CCCN3CC4(C3)CN(c3ncc(C(=O)N[C@H]5C(C)(C)[C@H](Oc6ccc(C#N)c(Cl)c6)C5(C)C)cn3)C4)cc1)=N[C@@H](C)c1nnc(C)n1-2 [Compound I-348]	< 500	1500 to 3000	–	–
